In patent US9409887B2, “Mutant-selective EGFR inhibitors and uses thereof” (Celgene Avilomics Research, Inc., priority 2010, dated 2016):

Columns and labels:
EGFR-WT = EGFR-WT (Homo sapiens (Human), UniProt P00533); assay: Omnia biochemical assay, EGFR (WT) active enzyme; conditions: [EGFR-WT]=5 nM, [ATP]=15 uM, 30 min pre-incubation
Description: (§1) Omnia Assay Protocol for Potency Assessment Against EGFR (WT) and EGFR (T790M/L858R) Active Enzymes
(§2) Below describes the biochemical assay protocol using EGFR-WT and EGFR-T790M/L858R.
(§3) The mechanics of the assay platform are best described by the vendor (Invitrogen, Carlsbad, Calif.) on their website at the following URL: www.invitrogen.com/content.cfm?pageid=11338 or www.invitrogen.com/site/us/en/home/Pro ducts-and-Services/Applications/Drug-Discovery/Target-and-Lead-Identification-and-Validation/KinaseBiology/KB-Misc/Biochemical-Assays/Omnia-Kinase-Assays.html.
(§4) Briefly, 10× stocks of EGFR-WT (PV3872) from Invitrogen and EGFR-T790M/L858R (40350) from BPS Bioscience, San Diego, Calif., 1.13×ATP (AS001A) and appropriate Tyr-Sox conjugated peptide substrates (KCZ1001) were prepared in 1× kinase reaction buffer consisting of 20 mM Tris, pH 7.5, 5 mM MgCl2, 1 mM EGTA, 5 mM β-glycerophosphate, 5% glycerol (10× stock, KB002A) and 0.2 mM DTT (DS001A). 5 μL of each enzyme were pre-incubated in a Corning (#3574) 384-well, white, non-binding surface microtiter plate (Corning, N.Y.) for 30 min. at 25° C. with a 0.5 μL volume of 50% DMSO and serially diluted compounds prepared in 50% DMSO. Kinase reactions were started with the addition of 45 μL of the ATP/Tyr-Sox peptide substrate mix and monitored every 71 seconds for 60 minutes at λex360/λem485 in a Synergy^4 plate reader from BioTek (Winooski, Vt.). At the conclusion of each assay, progress curves from each well were examined for linear reaction kinetics and fit statistics (R^2, 95% confidence interval, absolute sum of squares). Initial velocity (0 minutes to ˜30 minutes) from each reaction was determined from the slope of a plot of relative fluorescence units vs time (minutes) and then plotted against inhibitor concentration to estimate IC50 from log [Inhibitor] vs Response, Variable Slope model in GraphPad Prism from GraphPad Software (San Diego, Calif.).
(§5) [EGFR-WT]=5 nM, [ATP]=15 uM, [Y12-Sox]=5 uM (ATP KMapp˜12 uM); and [EGFR-T790M/L858R]=2.5 nM, [ATP]=20 uM, [Y12-Sox]=5 uM (ATP KMapp˜20 uM).

[1] = system: H1975 (double mutation L858R/T790M) cells; assay: Cell proliferation (CellTiter Glo, 72 hr) in H1975 cells; type: cell-based, human; conditions: for GI50: Homo sapiens, NCI-H1975, H1975 cells, 72 hr; for Ratio WT/mutant (H1975): proliferation GI50, WT EGFR (A431) vs H1975
Description: (§6) A431 human epidermoid carcinoma, H1975 human NSCLC and HCC827 human NSCLC adenocarcinoma cells were obtained from the American Type Culture Center (Manassas, Va.). A431 cells were grown in DMEM (Invitrogen, Carlsbad, Calif.) supplemented with 10% FBS (HyClone, South Logan, Utah) and 1% Penicillin-Streptomycin (P/S, Lonza, Walkersville, Md.). H1975 and HCC827 cells were grown in complete RPMI 1640 (Invitrogen) supplemented with 10% FBS and 1% P/S. All cells were maintained and propagated as monolayer cultures at 37° C. in a humidified 5% CO2 incubator.
(§7) Cells were plated in Growth Media supplemented with 5% FBS and 1% P/S at a density of 3,000 cells per well in 96 well tissue culture plates (Corning). Cells were allowed to settle down for 4 hr and then treated with 5, 1.25, 0.31, 0.078, 0.020 or 0.005 μM test compound for 72 hr. Cell viability was determined by CellTiter Glo (Promega, Madison, Wis.) and results were converted to cell numbers using a standard curve. Growth inhibition (GI50) values were determined by Graph Pad Prism.

[2] = molecular target: EGFR double mutation L858R/T790M (H1975 cells) (Homo sapiens (Human), UniProt P00533, L858R/T790M); assay: Phospho-EGFR signaling (immunoblotting, 1 hr) in H1975 cells; type: cell-based; conditions: for EC50: H1975 cells, 1 hr compound, phospho-EGFR (Y1068); for Ratio WT/mutant (H1975): signaling EC50, WT EGFR (A431) vs H1975
Description: as §6
(§8) All primary antibodies were obtained from Cell Signaling (Danvers, Mass.) and used at 1:1000. Secondary antibodies were used at 1:10,000. Goat anti-mouse IgG IRDye 800CW antibody was obtained from LiCor Biosciences (Lincoln, Nebr.) and goat anti-rabbit IgG Alexa Fluor 680 was obtained from Invitrogen.
Cells were grown in 12-well plates (Corning, Coring, N.Y.) to 90% confluence and then incubated in low-serum (0.1% FBS) media for 16-18 hr. Cells were then treated with 5, 1.25, 0.31, 0.078, 0.020 or 0.005 μM test compound in low-serum (0.1% FBS) media for 1 hr. A431 cells were then stimulated with 50 ng/ml EGF (Peprotech, Rocky Hill, N.J.) for 15 min. After treatment, cell monolayers were washed with cold PBS (Invitrogen) and immediately lysed by scrapping into 60 uL cold Cell Extraction Buffer (Invitrogen) supplemented with Complete Protease inhibitors (Roche, Indianapolis, Ind.) and PhosphoSTOP (Roche) phosphatase inhibitors.
(§9) Lysate protein concentrations were determined by BCA Assay (Pierce, Rockford, Ill.) and 50 ug of each lysate was separated by 4-12% gradient SDS-PAGE (Invitrogen), transferred to nitrocellulose membrane (Biorad, Hercules, Calif.) and probed with specific antibodies. Phospho-protein signals were quantitated using Odyssey Infrared Imaging (Li-Cor Biosciences).
To assess phosphor-EGFR signaling, blots were probed with rabbit anti-Phospho-EGFR (Y1068) and mouse total anti-EGFR antibodies. Phospho-EGFR signal was normalized to total EGFR expression for each sample. Results are indicated as % DMSO control. Normalized data was fitted using a sigmoidal curve analysis program (Graph Pad Prism version 5) with variable Hill slope to determine the EC50 values.
The compound numbers recited in Table 3 correspond to the compound numbers in Table 1.

WT-EGFR A431 cells = assay: Cell proliferation (CellTiter Glo, 72 hr) in A431 cells; type: cell-based; conditions: Homo sapiens, A-431
Description: as §6, §7

WT EGFR (A431 cells) = WT EGFR (A431 cells) (Homo sapiens (Human), UniProt P00533); assay: Phospho-EGFR signaling (immunoblotting, 1 hr) in A431 cells; type: cell-based; conditions: 1 hr compound, EGF stimulated, phospho-EGFR (Y1068)
Description: as §6, §8
(§10) Cells were grown in 12-well plates (Corning, Coring, N.Y.) to 90% confluence and then incubated in low-serum (0.1% FBS) media for 16-18 hr. […]
as §9, with “Biosciences). […]” for “Biosciences).”

[3] = system: HCC827 (delE746-A750 deletion mutation) cells; assay: Cell proliferation (CellTiter Glo, 72 hr) in HCC827 cells; type: cell-based, human; conditions: for GI50: Homo sapiens, HCC827 cells, 72 hr; for Ratio WT/mutant (HCC827): proliferation GI50, WT EGFR (A431) vs HCC827
Description: as §6, §7

EGFR-T790M/L858R = EGFR-T790M/L858R (Homo sapiens (Human), UniProt P00533, L858R/T790M); assay: Omnia biochemical assay, EGFR (T790M/L858R) active enzyme; conditions: for IC50: [EGFR-T790M/L858R]=2.5 nM, [ATP]=20 uM, 30 min pre-incubation; for Ratio WT/mutant: biochemical IC50, WT EGFR vs EGFR (T790M/L858R)
Description: as §1, §2, §3, §4, §5

[4] = molecular target: EGFR delE746-A750 mutation (HCC827 cells) (Homo sapiens (Human), UniProt P00533, DEL746-750); assay: Phospho-EGFR signaling (immunoblotting, 1 hr) in HCC827 cells; type: cell-based
Description: as §6, §8, §10
as §9, with “Biosciences). […]” for “Biosciences).”

H1975 tumor = H1975 tumor in vivo study; parameters: species or system nu/nu mice
Description: Female nu/nu mice were implanted with 1×10^7H1975 tumor cells in 50% Matrigel subcutaneously (0.2 ml injection volume) in the flank. Tumor measurements were recorded three times per week. Tumors were pair matched when they reached an average size of 100-150 mg. Group size was 10 mice. Test compound was administered intraperitoneal, 25 mg/kg or 50 mg/kg daily for 21 days. % Tumor inhibition was determined at 15 days and 18 days. Tumor volume was followed until tumors reached 1500 mm^3 or 60 days. Tumor inhibition value for I-1 was >80% for 25 mg/kg at both 15 and 18 days, and >90% for 50 mg/kg at both 15 and 18 days.

Compound | IC50 (EGFR-WT) [nM] | GI50 [1] [nM] | Ratio WT/mutant (H1975) [1] | EC50 [2] [nM] | Ratio WT/mutant (H1975) [2] | GI50 (WT-EGFR A431 cells) [nM] | EC50 (WT EGFR (A431 cells)) [nM] | GI50 [3] [nM] | Ratio WT/mutant (HCC827) [3] | IC50 (EGFR-T790M/L858R) [nM] | Ratio WT/mutant (EGFR-T790M/L858R) | EC50 ([4]; HCC827 cells, 1 hr compound, phospho-EGFR (Y1068)) [nM] | Ratio WT/mutant (HCC827) ([4]; signaling EC50, WT EGFR (A431) vs HCC827) | Tumor inhibition value (H1975 tumor; 25 mg/kg intraperitoneal daily, at 15 days) [%] | Tumor inhibition value (H1975 tumor; 25 mg/kg intraperitoneal daily, at 18 days) [%] | Tumor inhibition value (H1975 tumor; 50 mg/kg intraperitoneal daily, at 15 days) [%] | Tumor inhibition value (H1975 tumor; 50 mg/kg intraperitoneal daily, at 18 days) [%]
C=CC(=O)Nc1cccc(Nc2nc(Nc3ccc(NC4CN(C(=O)OC(C)(C)C)C4)cc3OC)ncc2C(F)(F)F)c1 [Compound I-3, tert-butyl 3-(4-(4-(3-acrylamidophenylamino)-5-(trifluoromethyl)pyrimidin-2-ylamino)-3-methoxyphenylamino)azetidine-1-carboxylate] | 100 to 300 | 100 to 500 | >5 | 100 to 500 | >10 | > 1000 | > 1000 | 10 to 100 | >20 | 1 to 10 | >50 | – | – | – | – | – | –
C=CC(=O)Nc1cccc(Oc2nc(Nc3ccc(NC(C)C)cc3OC)ncc2Cl)c1 [Compound I-4, N-(3-(5-chloro-2-(4-(isopropylamino)-2-methoxyphenylamino)pyrimidin-4-yloxy)phenyl)acrylamide] | 30 to 100 | 500 to 1000 | >1 | – | – | > 1000 | – | 100 to 500 | >35 | 1 to 10 | >25 | – | – | – | – | – | –
C=CC(=O)Nc1cccc(Nc2nc(Nc3ccc(NC(C)C)cc3OC)ncc2C(F)(F)F)c1 [Compound I-5, N-(3-(2-(4-(isopropylamino)-2-methoxyphenylamino)-5-(trifluoromethyl)pyrimidin-4-ylamino)phenyl)acrylamide] | 10 to 30 | 100 to 500 | >1 | – | – | 500 to 1000 | – | 100 to 500 | >5 | < 1 | >20 | – | – | – | – | – | –
C=CC(=O)Nc1cccc(Nc2nc(Nc3ccc(NC4CN(C(C)=O)C4)cc3OC)ncc2C(F)(F)F)c1 [Compound I-2, N-(3-(2-(4-(1-acetylazetidin-3-ylamino)-2-methoxyphenylamino)-5-(trifluoromethyl)pyrimidin-4-ylamino)phenyl)acrylamide] | 1 to 10 | 100 to 500 | >5 | – | – | > 1000 | – | 100 to 500 | >15 | < 1 | >15 | – | – | – | – | – | –
C=CC(=O)Nc1cccc(Nc2nc(Nc3ccc(NC4CN(CCF)C4)cc3OC)ncc2C(F)(F)F)c1 [Compound I-1, N-(3-(2-(4-(1-(2-fluoroethyl)azetidin-3-ylamino)-2-methoxyphenylamino)-5-(trifluoromethyl)pyrimidin-4-ylamino)phenyl)acrylamide] | 1 to 10 | 10 to 100 | >10 | 10 to 100 | >35 | 500 to 1000 | > 1000 | 10 to 100 | >10 | < 1 | >1 | 100 to 500 | >10 | > 80 | > 80 | > 90 | > 90
